In patent US9744174B2 (DemeRx, Inc., priority 2013, dated 2017):
“Also recorded” adds a separate entry of the source.

What was measured:
[1] = varies with the pH of the urine; cited from earlier work
male Sprague Dawley rats = assay: Noribogaine-methadone interaction study: mortality and postdose observations after oral dosing; details: rats; for Number Dead after Methadone: 10 dosed
[2] = as above; details: male, Sprague Dawley, rat, in vivo, po, methadone LD50, rats, oral
[3] = Ascending single-dose pharmacokinetics of noribogaine and noribogaine glucuronide (plasma, urine; LCMSMS); details: for AUC0-216 / AUC0-∞ / Cmax / Tmax / t1/2 / CL/F: mean (SD)
[4] = system: healthy, drug-free male volunteers; assay: Pupillometry (pupillary miosis) after single oral dose; assay type: in vivo, human; details: single oral 3, 10, 30 or 60 mg, up to 216 hours post-dosing
Protocol: Pulse oximetry and capnography data were collected continuously using a GE Carescape B650 monitoring system from 2 hours prior to dosing and until six hours after dosing, and thereafter at 12, 24, 48 and 72 hours post-dosing. […] Pupillary miosis was assessed by pupillometry.

[5] = system: healthy, drug-free male volunteers; assay: Safety and tolerability: adverse events, vital signs, ECG; assay type: in vivo, human
Protocol: (§1) Safety and tolerability of noribogaine were tested in the group of volunteers from Example 2. […] Safety evaluations included clinical monitoring, recording of adverse events (AEs), safety laboratory tests, vital signs, ECG telemetry from −2 h to 6 h after dosing, and 12-lead electrocardiograms (ECGs) up to 216 hours post-dosing.

mu receptor = details: Pearl et al., Brain Research, 675:342-344 (1995); read-out: affinity constant (K value) for the mu receptor; cited from earlier work
[6] = system: opioid-dependent participants; assay: Efficacy trial: time to resumption of opioid substitution treatment (OST); assay type: in vivo, human
Protocol: (§2) The efficacy of noribogaine in humans was evaluated in opioid-dependent participants in a randomized, placebo-controlled, double-blind trial. […] See U.S. Provisional Application No. 61/852,485, filed Mar. 15, 2013, which is incorporated herein by reference in its entirety.
(§3) In the first cohort, six patients were orally administered a single dose of 60 mg noribogaine, and three patients received placebo. In the second cohort, five patients were orally administered a single dose of 120 mg noribogaine, and three patients received placebo.

[7] = system: healthy, drug-free male volunteers; assay: Cold pressor test (analgesic effect); assay type: in vivo, human; details: single oral 3-60 mg; duration of hand immersion and VAS pain scores vs placebo
Protocol: Analgesic effect was assessed based on duration of hand immersion in ice water and on visual analog scale (VAS) pain scores upon hand removal from the water bath.
as §1

[8] = system: opioid-dependent participants; assay: QT interval prolongation in the efficacy trial; assay type: in vivo, human
Protocol: as §2, §3

[9] = plasma noribogaine glucuronide after single oral 30 mg noribogaine
[10] = plasma noribogaine glucuronide after single oral 60 mg noribogaine
[11] = plasma noribogaine, single oral 3 mg
[12] = plasma noribogaine, single oral 10 mg
[13] = plasma noribogaine, single oral 30 mg
[14] = plasma noribogaine, single oral 60 mg
[15] = oral, noribogaine 50 mg/kg then methadone 0 mg/kg (vehicle)
[16] = oral, noribogaine 150 mg/kg then methadone 0 mg/kg (vehicle)

## CC=C1N(C)C(C)CC1(c1ccccc1)c1ccccc1 (centres unmarked) [EDDP, 2-ethylidene-1.5-dimethyl-3.3diphenylpyrrolidine]
[1]
  Urinary excretion (percentage of a dose): 3-25%

## CCC(=O)C(CC(C)N(C)C)(c1ccccc1)c1ccccc1 (centres unmarked) [Methadone, reference compound]
Male Sprague Dawley rats; oral, noribogaine 0 mg/kg then methadone 1 mg/kg (table; b148: 10 mg/kg)
  Number Dead after Methadone: 0
Male Sprague Dawley rats; oral, noribogaine 0 mg/kg then methadone 3 mg/kg (table; b148: 30 mg/kg)
  Number Dead after Methadone: 1
Male Sprague Dawley rats; oral, noribogaine 0 mg/kg then methadone 5 mg/kg (table; b148: 50 mg/kg)
  Number Dead after Methadone: 3
Male Sprague Dawley rats; oral, methadone alone at 10 mg/kg
  Persistence of slight languid behavior: 1.75 h
Male Sprague Dawley rats; oral, methadone alone at 50 mg/kg
  Postdose observations: prostrate, had tremors, shallow respirations
Male Sprague Dawley rats; oral, methadone at doses of 30 and 50 mg/kg
  Persistence of adverse observations following the methadone dose: 3 h
Male Sprague Dawley rats; oral, within one hour following methadone alone at 10 and 30 mg/kg
  Postdose observations: slight ataxia, salivation, hunched posture, and languid behavior
[2]; after 0 mg/kg of noribogaine
  LD50: 68.2 mg/kg
[2]; after 50 mg/kg of noribogaine
  LD50: 29.7 mg/kg
[2]; after 150 mg/kg of noribogaine
  LD50: 8.86 mg/kg
[1]
  Urinary excretion (percentage of a dose): 5-50%

## CC[C@H]1C[C@@H]2C[C@H]3c4[nH]c5ccc(OC6OC(C(=O)O)C(O)C(O)C6O)cc5c4CCN(C2)[C@@H]13 (some centres unmarked) [Noribogaine glucuronide]
[3]; both dose groups (30 mg, 60 mg)
  Proportion of noribogaine glucuronide Cmax and AUC relative to noribogaine: 3-4%
[3]; [9]
  AUC0-216: 25.7 (9.1) ng · hr/ml
  AUC0-∞: 25.8 (9.3) ng · hr/ml
  Cmax: 1.8 (0.6) ng/ml
  Tmax: 3.0 (0.6) hr
  t1/2: 20.6 (4.9) hr
[3]; [10]
  AUC0-216: 65.0 (21.5) ng · hr/ml
  AUC0-∞: 67.1 (21.9) ng · hr/ml
  Cmax: 4.1 (1.2) ng/ml
  Tmax: 3.8 (1.2) hr
  t1/2: 23.1 (3.0) hr
[3]; plasma noribogaine glucuronide, 30 mg and 60 mg dose groups
  Time of peak concentrations after noribogaine dosing: 3 to 4 h
[3]; plasma noribogaine glucuronide, 30 mg and 60 mg noribogaine dose groups
  Time by which detected in all subjects: ≤ 0.75 h

## CC[C@H]1C[C@H]2C[C@H]3c4[nH]c5ccc(O)cc5c4CCN(C2)[C@@H]13 [Noribogaine]
[4]
  Pupillary constriction (pupil diameter): no evidence of pupillary constriction
[5]; 3 mg dose group, two subjects
  Number of adverse events reported: five
[5]; 10 mg dose group, single subject
  Number of adverse events reported: one
[5]; 30 mg dose group, single subject
  Number of adverse events reported: one
[5]; Dose 3 mg
  Adverse events, Mild: Dizziness; also recorded: Epistaxis; also recorded: Headache; also recorded: Back pain
  Adverse events, Moderate: Headache
[5]; Dose 10 mg
  Adverse events, Mild: Headache
[5]; Dose 30 mg
  Adverse events, Mild: Headache
[5]; one subject dosed with 10 mg, 24 hours post-dosing
  Single increase in QTcF: > 60 ms
[5]; single oral 3-60 mg
  Oximetry, capnography, respiratory rate: no changes in oximetry or capnography, or changes in respiratory rate
  Vital signs and safety laboratory tests: no changes in vital signs or safety laboratory tests of note
[5]; single oral 3-60 mg, at any time
  QTcF values: ≤ 500 ms
Mu receptor
  Ki: 2.66 µM
[3]; noribogaine, 3-60 mg, linear regression
  Dose-proportionality of Cmax and AUC: increased linearly with dose
[3]; noribogaine, across dose groups 3-60 mg
  Time of peak concentrations after oral dosing: 2 to 3 h
[3]; noribogaine, single oral 3 mg
  CL/F: 41.4 (7.0) L/h
[3]; noribogaine, single oral 10 mg
  CL/F: 42.3 (12.0) L/h
[3]; noribogaine, single oral 30 mg
  CL/F: 46.9 (16.4) L/h
[3]; noribogaine, single oral 60 mg
  CL/F: 34.0 (11.4) L/h
[3]; [11]
  AUC0-216: 72.2 (13.2) ng · hr/ml
  Cmax: 5.2 (1.4) ng/ml
  Tmax: 1.9 (0.6) hr
  t1/2: 40.9 (8.7) hr
[3]; [12]
  AUC0-216: 251.4 (78.5) ng · hr/ml
  Cmax: 14.5 (2.1) ng/ml
  Tmax: 2.9 (1.8) hr
  t1/2: 49.2 (11.5) hr
[3]; [13]
  AUC0-216: 677.6 (221.1) ng · hr/ml
  Tmax: 1.8 (0.6) hr
  t1/2: 27.6 (7.0))^ hr
[3]; [14]
  AUC0-216: 1935.4 (725.4) ng · hr/ml
  Tmax: 2.4 (0.6) hr
  t1/2: 29.1 (9.3) hr
Male Sprague Dawley rats; [15]
  Number Dead after Methadone: 0
  % Dead after Methadone: 0%
Male Sprague Dawley rats; [16]
  Number Dead after Methadone: 0
  % Dead after Methadone: 0%
Male Sprague Dawley rats; oral, noribogaine 150 mg/kg then methadone 0 mg/kg (vehicle), listed as noribogaine
  Number Dead after Methadone: no deaths
Male Sprague Dawley rats; oral, approximately 5 hours following noribogaine at 50 mg/kg, a few animals
  Postdose observations: languid behavior and tremors involving the entire body
Male Sprague Dawley rats; oral, approximately 5 hours following noribogaine at 150 mg/kg
  Postdose observations: Salivation, languid behavior, and ataxia
Male Sprague Dawley rats; oral, following noribogaine 50 and 150 mg/kg
  Postdose observations: slight ataxia, salivation (slight or severe), and hunched posture
Male Sprague Dawley rats; oral, noribogaine 50 mg/kg
  Percentage of animals with observations of ataxia and salivation: 30-40%
Male Sprague Dawley rats; oral, noribogaine 150 mg/kg
  Percentage of animals with observations of ataxia and salivation: 60-70%
Male Sprague Dawley rats; oral, noribogaine 50 and 150 mg/kg, before methadone
  Persistence of observations following dosing: up to 4 hours
Male Sprague Dawley rats; oral, noribogaine alone
  Persistence of adverse observations following dosing: 6.5 to 7 h
Male Sprague Dawley rats; oral, noribogaine at doses of 0, 50, and 150 mg/kg followed by the interaction article vehicle
  Mortality: no mortality
Male Sprague Dawley rats; oral noribogaine at doses of 50 and 150 mg/kg
  Effect on mortality associated with oral methadone: potentiates the mortality
[6]; 60 mg to 180 mg, inverted-U curve
  Therapeutic activity: therapeutic activity at all concentrations
[6]; 120 mg presumed treated patients, estimated from FIG. 4 profile
  Estimated serum noribogaine level at which significant withdrawal symptoms return and OST is resumed: 50 to 60 ng/mL
[6]; 180 mg, 6 presumed (imputed) noribogaine-treated patients
  Average time to resumption of OST: approximately 11.4 hours
[6]; (putatively) administered 60 mg noribogaine
  Time to resumption of OST: 9.6 h
[6]; second cohort, blinded: single oral 120 mg noribogaine (5 patients) or placebo (3)
  Average time to resumption of opioids: approximately 22 hours
[6]; single oral 60 mg or 120 mg
  Adverse effects, including hallucinatory effects: No adverse effects
[7]
  Analgesic effect in the cold pressor test: no analgesic effect
[8]; 180 mg
  Change in the QT interval prolongation: above 30 ms
[8]; first cohort (60 mg noribogaine or placebo)
  Mean prolongation of the QT interval: less than 10 ms
[8]; second cohort (120 mg noribogaine or placebo)
  Mean prolongation of the QT interval: less than 40 ms

## CC[C@H]1CC2C[C@H]3c4[nH]c5ccc(OC)cc5c4CCN(C2)C13 [ibogaine, reference compound]
Mu receptor
  Ki: 11 µM
